According to patent US9868735B2, “Benzazepine ketone compounds as glycogen phosphorylase inhibitor, preparation method therefor, and medical uses” (CHENGDE MEDICAL UNIVERSITY, priority 2013, dated 2018):

Biological target: T1, rabbit muscle glycogen phosphorylase (GPa) (Oryctolagus cuniculus, UniProt P00489)
T1 sequence (P00489 2-843 limits assumed): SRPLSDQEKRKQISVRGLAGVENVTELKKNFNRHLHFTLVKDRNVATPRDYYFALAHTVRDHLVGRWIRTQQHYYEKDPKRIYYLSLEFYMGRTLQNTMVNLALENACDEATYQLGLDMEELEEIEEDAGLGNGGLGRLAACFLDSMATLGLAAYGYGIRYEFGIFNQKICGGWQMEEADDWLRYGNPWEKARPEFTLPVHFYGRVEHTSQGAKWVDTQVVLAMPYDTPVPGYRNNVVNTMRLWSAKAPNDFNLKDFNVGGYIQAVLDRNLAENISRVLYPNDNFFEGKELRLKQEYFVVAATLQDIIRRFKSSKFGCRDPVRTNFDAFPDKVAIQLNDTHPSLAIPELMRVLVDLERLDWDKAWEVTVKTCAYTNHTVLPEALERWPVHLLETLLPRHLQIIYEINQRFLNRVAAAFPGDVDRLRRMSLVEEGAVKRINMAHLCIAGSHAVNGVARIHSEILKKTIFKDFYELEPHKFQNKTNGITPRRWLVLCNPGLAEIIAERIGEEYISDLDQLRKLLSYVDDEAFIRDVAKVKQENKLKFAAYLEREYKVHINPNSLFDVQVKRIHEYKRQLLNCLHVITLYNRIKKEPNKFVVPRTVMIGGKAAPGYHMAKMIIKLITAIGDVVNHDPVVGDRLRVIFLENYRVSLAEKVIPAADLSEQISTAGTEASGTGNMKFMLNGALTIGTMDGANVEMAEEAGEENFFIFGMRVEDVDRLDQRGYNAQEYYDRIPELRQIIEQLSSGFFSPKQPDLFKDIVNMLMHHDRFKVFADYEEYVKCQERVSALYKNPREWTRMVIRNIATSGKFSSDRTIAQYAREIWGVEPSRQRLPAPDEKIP
Test: Glycogen phosphorylase in vitro inhibitory activity assay
Assay type: biochemical
Conditions: GPa 250 ng/100 μl, 30° C. 20 minutes, colorimetry at 655 nm
Method: Glycogen Phosphorylase In Vitro Inhibitory Activity Assay
Preparation of reagents: 1) preparation of color developing solution: 5 g of ammonium molybdate was weighed, dissolved in 500 ml of 1M HCl and stirred with a stirrer until completely dissolved. Then the mixture was added with 190 mg of malachite green with stirring until completely dissolved. The solution prepared was wrapped with an aluminum foil to protect it from exposure to light; 2) preparation of buffer: {circumflex over (1)} 0.5958 g of Hepes was precisely weighed and dissolved in 5 ml H2O. […]
Determination of dose-response curve of rabbit muscle glycogen phosphorylase activity: a dose-response curve was determined by reading OD values of various concentrations of GPa solutions at 655 nm after added with a color developing solution. The amount of GPa can be 250 ng as determined from the dose-response curve.
Experimental procedure: 1) designing PC (positive control), Blank (blank control), positive drug (caffeine); 2) adding 52 μl of reaction buffer; 3) adding the test compound to a final concentration; 4) adding 1 μl of enzyme to a final concentration of 250 ng/100 μl; 5) adding 150 μl of the color developing solution; 6) reacting at 30° C. for 20 minutes; 7) colorimetry determination at a wavelength of 655 nm; 8) reading data and calculating inhibitory activity: Inhibitory Activity=(PC−test sample)/(PC−Blank)

IC50: < 100 nM
SMILES: O=C(Nc1ccc2c(c1)C(=O)NCCO2)c1cc2cc(Cl)ccc2[nH]1 [Example 1, 7-(5-Chloro-1H-indole-2-carboxamido)-3,4-dihydrobenzo[f][1,4]oxazepin-5(2H)-one]
